Laboratory results as given in patent US6358978B1, “Substituted benzimidazoles” (Aventis Pharma Deutschland GmbH, priority 1999, dated 2002).
Where a name gives a salt, the structure may show the parent alone.

Assays:
[1] = molecular target: T1, cAMP-dependent protein kinase (PKA) (Homo sapiens, UniProt P17612); assay: PKA kinase test (Upstate Biotechnology kit); assay type: biochemical; conditions: substance concentration of 100 μM; ATP 50 μM
T1 construct: purchased Upstate Biotechnology
Method: (§1) cAMP-dependent protein kinase (PKA), protein kinase C (PKC), and casein kinase II (CK II) were determined using the appropriate test kits of Upstate Biotechnology according to the procedure of the manufacturer at an ATP concentration of 50 μM. Differently, no phosphocellulose filter, but MultiScreen plates (Millipore; phosphocellulose MS-PH, cat. MAPHNOB10) with the corresponding aspiration system were used. The plates or membranes (IκB kinase) were then measured in a Wallac Microβeta scintillation counter. 100 μM of the test substance were employed in each case.
(§2) Each substance was tested in a duplicate determination. The mean value of the blank (without enzyme) is subtracted from the mean values (enzyme with and without substances) and the % inhibition is calculated. IC50 calculations were carried out using the software package GraFit 3.0.

[2] = molecular target: T2, casein kinase II (CK II) (Homo sapiens, UniProt P68400); assay: CK II kinase test (Upstate Biotechnology kit); assay type: biochemical; conditions: substance concentration of 100 μM; ATP 50 μM
T2 construct: purchased Upstate Biotechnology
T2 sequence (P68400 whole entry): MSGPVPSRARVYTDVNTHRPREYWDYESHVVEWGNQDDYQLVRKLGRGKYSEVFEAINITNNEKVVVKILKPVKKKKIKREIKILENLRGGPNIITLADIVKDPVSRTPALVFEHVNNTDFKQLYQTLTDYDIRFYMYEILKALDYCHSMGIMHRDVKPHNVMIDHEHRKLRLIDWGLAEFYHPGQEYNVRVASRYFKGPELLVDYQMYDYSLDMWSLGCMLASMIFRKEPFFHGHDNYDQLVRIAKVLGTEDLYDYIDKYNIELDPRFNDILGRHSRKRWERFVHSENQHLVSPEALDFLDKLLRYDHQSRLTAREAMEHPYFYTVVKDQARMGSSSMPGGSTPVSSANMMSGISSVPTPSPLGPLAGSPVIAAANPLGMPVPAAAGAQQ
T2 sequence (P67870 whole entry partner): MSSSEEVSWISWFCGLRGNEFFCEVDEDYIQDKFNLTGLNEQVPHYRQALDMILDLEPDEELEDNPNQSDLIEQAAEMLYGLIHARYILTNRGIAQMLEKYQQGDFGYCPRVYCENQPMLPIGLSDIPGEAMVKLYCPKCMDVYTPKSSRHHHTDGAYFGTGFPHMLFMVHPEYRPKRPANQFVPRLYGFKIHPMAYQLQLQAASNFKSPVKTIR
Method: as §1, §2

[3] = tested on: protein kinase C (PKC); assay: PKC kinase test (Upstate Biotechnology kit); assay type: biochemical; conditions: substance concentration of 100 μM; ATP 50 μM
Method: as §1, §2

[4] = molecular target: T3, IκB kinase (Homo sapiens, UniProt O14920+O15111); assay: IκB kinase filter test; assay type: biochemical; conditions: kinase purified from HeLa cell extracts; 50 μM ATP; substrate peptide 20 μM
T3 construct: The kinase was purified from HeLa cell extracts; endogenous in cells; host or cells: HeLa cell extracts
T3 sequence (O14920 whole entry): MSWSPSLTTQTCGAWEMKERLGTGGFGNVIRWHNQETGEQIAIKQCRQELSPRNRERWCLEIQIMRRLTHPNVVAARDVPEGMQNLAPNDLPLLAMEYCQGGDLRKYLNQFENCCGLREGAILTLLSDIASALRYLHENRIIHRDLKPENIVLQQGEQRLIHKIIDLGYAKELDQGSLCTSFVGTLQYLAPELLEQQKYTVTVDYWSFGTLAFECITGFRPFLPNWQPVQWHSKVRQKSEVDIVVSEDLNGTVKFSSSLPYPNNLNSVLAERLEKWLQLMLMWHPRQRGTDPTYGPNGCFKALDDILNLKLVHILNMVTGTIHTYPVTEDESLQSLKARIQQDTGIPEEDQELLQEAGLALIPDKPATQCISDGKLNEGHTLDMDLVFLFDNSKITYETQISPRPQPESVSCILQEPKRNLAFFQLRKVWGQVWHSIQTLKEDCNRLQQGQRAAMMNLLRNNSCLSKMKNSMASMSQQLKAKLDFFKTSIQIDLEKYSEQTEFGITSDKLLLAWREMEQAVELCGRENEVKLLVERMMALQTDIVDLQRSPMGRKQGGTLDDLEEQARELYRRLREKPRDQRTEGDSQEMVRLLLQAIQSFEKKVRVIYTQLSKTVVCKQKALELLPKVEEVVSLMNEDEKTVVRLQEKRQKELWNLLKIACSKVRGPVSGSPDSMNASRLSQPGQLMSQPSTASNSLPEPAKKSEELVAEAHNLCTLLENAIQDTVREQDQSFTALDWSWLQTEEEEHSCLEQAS
T3 sequence (O15111 whole entry): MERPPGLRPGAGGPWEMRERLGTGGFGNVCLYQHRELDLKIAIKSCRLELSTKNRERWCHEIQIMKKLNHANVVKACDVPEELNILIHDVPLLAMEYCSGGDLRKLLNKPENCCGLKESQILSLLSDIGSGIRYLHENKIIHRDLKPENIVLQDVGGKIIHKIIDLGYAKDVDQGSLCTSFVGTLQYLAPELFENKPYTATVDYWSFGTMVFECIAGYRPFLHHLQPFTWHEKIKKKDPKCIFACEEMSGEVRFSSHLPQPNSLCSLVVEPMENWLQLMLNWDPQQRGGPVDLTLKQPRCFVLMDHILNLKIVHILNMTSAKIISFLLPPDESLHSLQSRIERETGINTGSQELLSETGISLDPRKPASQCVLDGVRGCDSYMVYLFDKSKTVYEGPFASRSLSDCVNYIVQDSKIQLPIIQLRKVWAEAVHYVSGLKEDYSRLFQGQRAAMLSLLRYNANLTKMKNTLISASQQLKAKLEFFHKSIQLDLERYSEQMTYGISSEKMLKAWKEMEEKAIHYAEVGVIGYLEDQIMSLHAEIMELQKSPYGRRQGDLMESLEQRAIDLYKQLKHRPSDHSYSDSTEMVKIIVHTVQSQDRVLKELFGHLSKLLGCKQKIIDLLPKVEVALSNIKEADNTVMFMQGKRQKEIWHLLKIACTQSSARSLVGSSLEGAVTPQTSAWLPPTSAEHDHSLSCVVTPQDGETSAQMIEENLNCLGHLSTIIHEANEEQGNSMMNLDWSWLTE
T3 sequence (Q9Y6K9 whole entry partner): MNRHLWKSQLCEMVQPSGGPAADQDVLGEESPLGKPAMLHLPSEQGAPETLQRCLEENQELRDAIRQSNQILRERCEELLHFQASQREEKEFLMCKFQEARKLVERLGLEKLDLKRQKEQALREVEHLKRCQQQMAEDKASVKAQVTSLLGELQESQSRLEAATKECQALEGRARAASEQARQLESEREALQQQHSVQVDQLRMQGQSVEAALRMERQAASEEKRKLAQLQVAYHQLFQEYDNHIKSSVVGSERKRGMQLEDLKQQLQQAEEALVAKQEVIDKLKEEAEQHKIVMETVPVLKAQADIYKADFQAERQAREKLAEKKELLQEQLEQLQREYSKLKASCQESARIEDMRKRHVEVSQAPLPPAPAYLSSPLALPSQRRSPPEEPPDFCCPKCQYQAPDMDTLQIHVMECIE

Row | Compound | inhibition at 100 µM [1] | inhibition at 100 µM [2] | PKC % inhibition [3] | IC50 [4] | melting point
1 | NC(=O)[C@H](Cc1cccnc1)NC(=O)c1ccc2nc(-c3ccncc3)[nH]c2c1 [Example 12] | 0% | 0% | 16% | 42 µM | –
2 | CC(C)(C)c1ccccc1SC[C@H](NC(=O)c1ccc2[nH]c(-c3ccncc3)nc2c1)C(=O)O [Example 112] | 24% | 17% | 7% | 25 µM | –
3 | NC(=O)[C@H](Cc1ccc2ccccc2n1)NC(=O)c1ccc2nc(-c3ccncc3)[nH]c2c1 [Example 19] | 36% | 70% | 63% | 1 µM | –
4 | NC(=O)[C@H](Cc1ccc(C(=O)O)cc1)NC(=O)c1ccc2nc(-c3ccncc3)[nH]c2c1 [Example 14] | 0% | 0% | 0% | 7 µM | –
5 | O=C(N[C@H](Cc1ccc(Cl)cc1)C(=O)O)c1ccc2nc(-c3ccncc3)[nH]c2c1 [Example 6] | 0% | 14% | 46% | 72 µM | –
6 | O=C(N[C@@H](CCc1ccccc1)c1nnc(NS(=O)(=O)c2ccccc2)o1)c1ccc2[nH]c(-c3ccncc3)nc2c1 [Example 191] | – | – | – | 0.12 µM | 220 °C (dec.)
7 | NC(=O)[C@H](Cc1cc(Br)c(O)c(Br)c1)NC(=O)c1ccc2nc(-c3ccncc3)[nH]c2c1 [Example 20] | 26% | 60% | 31% | 34 µM | –
8 | NC(=O)[C@H](Cc1cccc(C(F)(F)F)c1)NC(=O)c1ccc2nc(-c3ccncc3)[nH]c2c1 [Example 8] | 0% | 7% | 9% | 4 µM | –
9 | NC(=O)[C@H](Cc1cccs1)NC(=O)c1ccc2nc(-c3ccncc3)[nH]c2c1 [Example 11] | 0% | 0% | 16% | 7 µM | –
10 | NC(=O)[C@H](Cc1cccs1)NC(=O)c1cccc2nc(-c3ccncc3)[nH]c12 [Example 34] | – | – | – | 16 µM | –
11 | O=C(N[C@@H](Cc1ccc(F)cc1F)C(=O)O)c1ccc2nc(-c3ccncc3)[nH]c2c1 [Example 5] | 0% | 19% | 16% | 25 µM | –
12 | NC(=O)[C@H](CC1CC1)NC(=O)c1cccc2nc(-c3ccncc3)[nH]c12 [Example 36] | – | – | – | 36 µM | –
13 | CNC(=O)Nc1nnc([C@H](CCc2ccccc2)NC(=O)c2ccc3[nH]c(-c4ccncc4)nc3c2)o1 [Example 192, 2-pyridin-4-yl-1H-benzimidazole-5-carboxylic acid {1-[5-(3-methylureido)-[1,3,4]oxadiazol-2-yl]-3-phenylpropyl}amide] | – | – | – | 0.36 µM | –
14 | CCN(C[C@H](NC(=O)c1ccc2[nH]c(-c3ccncc3)nc2c1)C(=O)O)c1ccccc1 (as salt: trifluoroacetate) [Example 195, 3-Phenylaminoethyl-2-[(2-pyridin-4-yl-1H-benzimidazole-5-carbonyl)-amino]propionic acid trifluoroacetate] | – | – | – | – | ~ 258 °C (dec.)
15 | Nc1nnc([C@H](CCc2ccccc2)NC(=O)c2ccc3[nH]c(-c4ccncc4)nc3c2)o1 [Example 179, 2-pyridin4-yl-1H-benzimidazole-5-carboxylic acid [1-(5-amino-[1,3,4]oxadiazol-2-yl)-3-phenylpropyl]amide] | – | – | – | 0.43 µM | 160 °C (dec.)
16 | O=C(N[C@@H](Cc1ccc(F)cc1)C(=O)O)c1ccc2nc(-c3ccncc3)[nH]c2c1 [Example 7] | 0% | 10% | 15% | 22 µM | –
17 | O=C(N[C@@H](CCc1ccccc1)c1nnco1)c1ccc2[nH]c(-c3ccncc3)nc2c1 [Example 180, 2-pyridin-4-yl-1H-benzimidazole-5-carboxylic acid (1-[1,3,4]oxadiazol-2-yl-3-phenylpropyl)amide] | – | – | – | 0.62 µM | 103 °C (dec.)
18 | CSCC[C@H](NC(=O)c1ccc2[nH]c(-c3ccncc3)nc2c1)C(N)=O [Example 107] | 0% | 92% | 13% | 1 µM | –
19 | N#Cc1ccc(C[C@H](NC(=O)c2ccc3nc(-c4ccncc4)[nH]c3c2)C(N)=O)cc1 [Example 16] | 0% | 4% | 11% | 9 µM | –
